In the NIST ThermoML archive (doi:10.1016/j.tca.2009.06.015):
± gives the expanded uncertainty stated by the source.

Key:
[1] = xn = mol fraction of the nth substance listed; conditions: 101 kPa, Liquid; for viscosity: Capillary tube (Ostwald / Ubbelohde) method; for mass density: Vibrating tube method
[2] = refractive index (Na D-line) (dimensionless); xn = mol fraction of the nth substance listed; conditions: 101 kPa, Liquid, Standard Abbe refractometry

CCCCC(C)O (configuration not stated) [2-hexanol] + CC#N
Conditions	mass density, [1] [kg/m3]	refractive index, [2]	viscosity, [1] [mPa·s]
293.15 K, x2 = 0	814.08 ± 0.3	1.4135 ± 0.0021	5.155 ± 0.061
293.15 K, x2 = 0.0964	812.14 ± 0.31	1.4103 ± 0.002	3.491 ± 0.044
293.15 K, x2 = 0.1813	810.22 ± 0.31	1.4077 ± 0.002	2.696 ± 0.03
293.15 K, x2 = 0.2574	808.34 ± 0.31	1.4051 ± 0.002	2.128 ± 0.024
293.15 K, x2 = 0.3436	806.07 ± 0.31	1.4014 ± 0.002	1.684 ± 0.018
293.15 K, x2 = 0.4483	803.11 ± 0.31	1.3972 ± 0.002	1.276 ± 0.014
293.15 K, x2 = 0.5398	800.33 ± 0.31	1.3917 ± 0.002	1.006 ± 0.011
293.15 K, x2 = 0.6495	796.76 ± 0.31	1.3837 ± 0.002	0.7676 ± 0.0082
293.15 K, x2 = 0.758	792.88 ± 0.31	1.3739 ± 0.002	0.582 ± 0.0064
293.15 K, x2 = 0.8733	788.19 ± 0.31	1.3621 ± 0.0021	0.4444 ± 0.0049
293.15 K, x2 = 0.9579	784.29 ± 0.31	1.351 ± 0.0021	0.3758 ± 0.0042
298.15 K, x2 = 0	810.14 ± 0.31	1.4116 ± 0.0021	4.1 ± 0.05
298.15 K, x2 = 0.0964	808.14 ± 0.31	1.4096 ± 0.002	2.933 ± 0.033
298.15 K, x2 = 0.1813	806.14 ± 0.31	1.4078 ± 0.002	2.284 ± 0.025
298.15 K, x2 = 0.2574	804.19 ± 0.31	1.4054 ± 0.002	1.84 ± 0.02
298.15 K, x2 = 0.3436	801.82 ± 0.31	1.4022 ± 0.002	1.475 ± 0.015
298.15 K, x2 = 0.4483	798.72 ± 0.31	1.3975 ± 0.002	1.133 ± 0.012
298.15 K, x2 = 0.5398	795.82 ± 0.31	1.3924 ± 0.002	0.9062 ± 0.0094
298.15 K, x2 = 0.6495	792.09 ± 0.31	1.3837 ± 0.002	0.6995 ± 0.0073
298.15 K, x2 = 0.758	788.02 ± 0.31	1.373 ± 0.002	0.5384 ± 0.0057
298.15 K, x2 = 0.8733	783.08 ± 0.31	1.3595 ± 0.002	0.4184 ± 0.0046
298.15 K, x2 = 0.9579	779.02 ± 0.31	1.348 ± 0.0021	0.3583 ± 0.004
303.15 K, x2 = 0	806.13 ± 0.31	1.4093 ± 0.0021	3.41 ± 0.04
303.15 K, x2 = 0.0964	804.04 ± 0.31	1.4082 ± 0.002	2.491 ± 0.027
303.15 K, x2 = 0.1813	801.94 ± 0.31	1.4064 ± 0.002	1.967 ± 0.021
303.15 K, x2 = 0.2574	799.91 ± 0.31	1.4044 ± 0.002	1.61 ± 0.017
303.15 K, x2 = 0.3436	797.49 ± 0.31	1.4021 ± 0.002	1.301 ± 0.014
303.15 K, x2 = 0.4483	794.38 ± 0.31	1.3979 ± 0.002	1.017 ± 0.01
303.15 K, x2 = 0.5398	791.33 ± 0.31	1.3925 ± 0.002	0.8212 ± 0.0085
303.15 K, x2 = 0.6495	787.45 ± 0.31	1.3839 ± 0.002	0.6409 ± 0.0067
303.15 K, x2 = 0.758	783.07 ± 0.31	1.374 ± 0.002	0.5036 ± 0.0053
303.15 K, x2 = 0.8733	777.74 ± 0.31	1.3596 ± 0.002	0.3943 ± 0.0043
303.15 K, x2 = 0.9579	773.37 ± 0.31	1.345 ± 0.002	0.3411 ± 0.0038
308.15 K, x2 = 0	802.06 ± 0.31	1.4077 ± 0.0021	2.819 ± 0.034
308.15 K, x2 = 0.0964	799.97 ± 0.31	1.4069 ± 0.002	2.134 ± 0.022
308.15 K, x2 = 0.1813	797.84 ± 0.31	1.4061 ± 0.002	1.708 ± 0.018
308.15 K, x2 = 0.2574	795.74 ± 0.31	1.4049 ± 0.002	1.42 ± 0.015
308.15 K, x2 = 0.3436	793.18 ± 0.31	1.4026 ± 0.002	1.155 ± 0.012
308.15 K, x2 = 0.4483	789.88 ± 0.31	1.3979 ± 0.002	0.9154 ± 0.0094
308.15 K, x2 = 0.5398	786.73 ± 0.31	1.3925 ± 0.002	0.7511 ± 0.0077
308.15 K, x2 = 0.6495	782.83 ± 0.31	1.3844 ± 0.002	0.5933 ± 0.0061
308.15 K, x2 = 0.758	778.36 ± 0.31	1.3745 ± 0.002	0.4724 ± 0.005
308.15 K, x2 = 0.8733	772.84 ± 0.31	1.361 ± 0.002	0.3759 ± 0.0041
308.15 K, x2 = 0.9579	768.23 ± 0.31	1.3469 ± 0.002	0.3263 ± 0.0037
